These results are taken from PMC6690930, “Characterization and its implication of a novel taste receptor detecting nutrients in the honey bee, Apis mellifera” (Scientific Reports, 2019).

Structures are written as SMILES.

One assay relates to AmGr1. Details: method as in earlier work. Conditions: cited from earlier work.
Assay [1] has as its system sensilla chaetica on the galea. The assay can be described thus: Tip recording from galeal sensilla chaetica of honey bee. The assay is classed as in vivo, Apis mellifera. Conditions: for Responses during 1 sec of stimulation: sensilla chaetica on the galea; for Threshold concentration necessary for tip recording: honey bee mouthparts in vivo; for Response of sensilla chaetica on the galea (in words): tip recording. From the text:
Tip recording® experiments were amplified and recorded from the left galea of the proboscis in honey bee mouthparts with IDAC4 with Autospikes software (Syntech, Hilversum, The Netherlands). Bees were immobilized by cooling on ice, restrained in a pipette tip, holding head and appendages in place for electrophysiological measurements. Recordings from gustatory sensilla in galea were made from so-called sensilla chaetica[81] at the tip of galea devoid of olfactory sensilla. These sensilla can be easily identified by their external morphology. A grounded reference electrode filled with 1 mM KCl was inserted into the compound eye. L-glutamate and L-aspartate were selected for tip recording testing and are common amino acids in plant pollen. For stimulation, 1 mM KCl with […] concentrations of 100 mM and 1 mM KCl alone were used. Stimuli were applied for approximately 5 s with an inter-stimulus interval of 3 min. […] These sensilla were excluded from the data analysis. The responses of galeal sensilla to all tested solutions were quantified by counting the number of spikes after stimulus onset.

Assay [2] deals with T1, AmGr10 (Apis mellifera, UniProt A0A7M6W8K8). The assay can be described thus: Calcium imaging of HEK 293 cells expressing AmGr10. Type of assay: cell-based. Conditions: for Real time calcium imaging response: 50 μm amino acid alone, Videos S1, S2; for Real time calcium imaging response with IMP: 50 μm amino acid with 2 μm of IMP, Videos S3, S4. The protocol: (§1) The expression vector was synthesized by inserting the cDNA of AmGr10 (Apis mellifera Gustatory receptor 10) into the multiple cloning site of the pcDNA3.1 vector using the restriction enzymes EcoRI and NotI (Koscamco, Anyang, Korea). Template pDNA for pcDNA3.1-AmGr10 and primers were then mixed with kit solutions. The total PCR volume and conditions were followed as described previously. 2.5 µg of the vector with AmGr10 was transfected into the HEK 293 cells using Lipofectamine 2000 (Invitrogen, CA, USA). The transfection method was according to the manufacturer’s manual. In brief, the Opti-MEM (Invitrogen, CA, USA) was mixed with Lipofectamine at the rate of 6 μL in 125 μL Opti-MEM. It was incubated for 5 min at room temperature. The plasmid DNA (2.5 μg) also was blended with 125 μL Opti-MEM media. These were combined and incubated for 20 min at room temperature. The solution was applied on the HEK cells. After 24 h, the transfected cells were selected using 200 µg/ml zeocin.
T1 sequence (A0A7M6W8K8 entry or part of it): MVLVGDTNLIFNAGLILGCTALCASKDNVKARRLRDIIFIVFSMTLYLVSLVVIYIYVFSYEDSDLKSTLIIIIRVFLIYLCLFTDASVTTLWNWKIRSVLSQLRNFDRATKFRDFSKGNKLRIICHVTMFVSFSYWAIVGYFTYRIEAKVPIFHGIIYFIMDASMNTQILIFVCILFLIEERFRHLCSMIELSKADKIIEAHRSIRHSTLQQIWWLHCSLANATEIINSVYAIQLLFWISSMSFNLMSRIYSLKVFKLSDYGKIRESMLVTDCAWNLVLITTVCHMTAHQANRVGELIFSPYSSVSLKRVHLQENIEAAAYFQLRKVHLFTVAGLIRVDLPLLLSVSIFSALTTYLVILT
Transfected cell lines were subsequently cultured on dishes suitable for confocal microscopy (SPL, Pocheon, Korea). Before each experiment, the culture medium was removed and washed once in Hansk’s balanced salt solution (assay buffer). Transfected cells were loaded with calcium dye Fluo-4 AM (Molecular probes, USA), 2 μM in assay buffer to the dish, after which the cells were incubated in the dark for 90 min at room temperature. After incubation, 1X HBSS buffer was added to the confocal dish, which was then directly placed in the LSM700 inverted confocal microscope for observation (Zeiss, Oberkochen, Germany). Images were captured with a maximum of 100 frames per two-second interval. Test chemicals were dissolved in HBSS at various concentrations. Calcium influx into the transfected cells upon ligand binding was monitored and analyzed with ZEN software (Zeiss, Oberkochen, Germany). For data analysis, response refers to the number of cells responding in a field of about 300 transfected cells. Cells were counted as responders if the F ratio increased above 0.27 after addition of tastants.

Another assay relates to hT1R1/hT1R3. The conditions noted are these: cited from earlier work.
Assay [3] has as its target T1, AmGr10. Kind of assay: Two-electrode voltage-clamp recording of Xenopus oocytes expressing AmGr10. The assay is classed as cell-based. Conditions: for Response of oocytes injected with AmGr10 cRNA (in words): holding potential -70 mV; for Threshold concentration on Xenopus oocytes expressed AmGr10: in vitro. The protocol: Full-length coding sequences of the AmGr10 cDNA were first cloned into pGEM-T easy vector (Promega, Madison, USA) and then subcloned into the pSDTF vector. In vitro transcription of cRNA was performed by using the mMESSAGE mMACHINE SP6 Kit (Ambion, Austin, TX, USA) according to the manufacturer’s protocol. Plasmids were linearized with EcoR1, and capped cRNA was transcribed using SP6 RNA polymerase. The cRNA was purified, resuspended in nuclease-free water at a concentration of 1 μg/μl, and stored at −80 °C in aliquots. Mature oocytes were freed from the follicle cells by treatment with collagenase A for 1 h at room temperature and incubated for 24 hours in modified Barth’s solution[16]. […] The oocytes were then incubated at 17 °C for 3~5 days in Barth’s solution. The two-electrode voltage-clamp technique was employed to observe tastant-induced currents at a holding potential of −70 mV.
On the technique in general: In two-electrode clamp one electrode senses voltage and the other passes current.

Assay [4] addresses T1, AmGr10. Kind of assay: Intracellular calcium assay (Fluo-4) in HEK 293 cells expressing AmGr10. Type of assay: cell-based. Conditions: for Response of HEK 293 cells expressing AmGr10 (in words): 100 mM of amino acid. The protocol: as §1
For calcium signaling assays, HEK 293 cells expressing AmGr10 were cultured for more than 3 days, and the Fluo-4 AM dye mix solution (Molecular probes) was loaded into the cell in 96-well microplate. […] To normalize the response, the changes in the fluorescence ratio were divided by the maximal fluorescence changes induced by each compound.

In a further assay the test system is human. The arrangement: method as in PMID 24214976. The conditions noted are these: at high concentrations; cited from earlier work.
The subject of assay [5] is non-transfected HEK 293 cells. The assay can be described thus: Calcium imaging of non-transfected HEK 293 cells (control). The assay is classed as cell-based. The conditions noted are these: Fig. S6. On the procedure:
Test chemicals were dissolved in HBSS at various concentrations.

Another assay has as its system AmGr3. The arrangement: method as in PMID 28403157, PMID 29194737. The conditions noted are these: cited from earlier work.

Take `OC[C@H]1O[C@H](O[C@H]2[C@H](O)[C@@H](O)C(O)O[C@@H]2CO)[C@H](O)[C@@H](O)[C@@H]1O` (mixture of isomers) [maltose]: the “Response of AmGr1” value in the assay on AmGr1 is given as “responded”.

On to `Nc1nc2c(ncn2[C@@H]2O[C@H](COP(=O)(O)O)[C@@H](O)[C@H]2O)c(=O)[nH]1` [GMP, Guanosine 5′-monophosphate], for which, in assay [1] (2 mM GMP), the “Effect of GMP on responses to non-amino acid stimulus sucrose” value is “no significant effect”. The “Effect of GMP on nerve-firing rates to amino acids” value in [1] (2 mM GMP, 50 mM amino acids) is recorded as “significantly enhanced”.

On to `NC(CCP(=O)(O)O)C(=O)O` [L-AP4], for which the “AmGr10 response in presence of purine nucleotides” value on AmGr10 [2] (amino acids 50 mM, IMP 2 mM) was “greatly enhanced”.

Take `C[C@H](N)C(=O)O` [L-Ala]: the “Response of hT1R1/hT1R3” value in the assay with hT1R1/hT1R3 is “slight but significant responses”.

For `N=C(N)NCCC[C@H](N)C(=O)O` [L-arginine, L-Arginine], the “Response of oocytes injected with AmGr10 cRNA (in words)” value (from here on “Response of oocytes injected”) on AmGr10 [3] is listed as “responsive”. Moreover, the “Response of HEK 293 cells expressing AmGr10 (in words)” value at AmGr10 [4] is “significant responses”. Further, the “Response of hT1R1/hT1R3” value in the assay on hT1R1/hT1R3 is “slight but significant responses”. The “Umami taste in human sensory tests” value in the assay on human was “weak umami taste”.

For `NC(=O)C[C@H](N)C(=O)O` [L-asparagine, L-Asparagine], on AmGr10 [3], the “Response of oocytes injected” value is “responsive”. Further, the “Response of HEK 293 cells expressing AmGr10 (in words)” value at AmGr10 [4] was “significant responses”. The “Response of hT1R1/hT1R3” value in the assay with hT1R1/hT1R3 was “slight but significant responses”. Further, in the assay with human, the “Umami taste in human sensory tests” value is reported as “weak umami taste”.

On to `N[C@@H](CC(=O)O)C(=O)O` [L-aspartate, L-Aspartic acid], for which the “Responses during 1 sec of stimulation” value in [1] (100 mM) is 22 spikes. Also, the “Responses during 1 sec of stimulation” value in [1] (200 mM) worked out at 51 spikes. Also, in assay [1] (concentration of 50 mM), the “Responses during 1 sec of stimulation” value is given as 6 spikes. Besides, in assay [1], the “Threshold concentration necessary for tip recording” value is ~ 50 mM and the “Response of sensilla chaetica on the galea (in words)” value (“Response of sensilla chaetica” for short) is recorded as “responded”. Further, at AmGr10 [3], the “Response of oocytes injected” value is “responsive” and the “Threshold concentration on Xenopus oocytes expressed AmGr10” value was ~ 10 mM. For the same molecule, the “Response of HEK 293 cells expressing AmGr10 (in words)” value at AmGr10 [4] is on record as “highest responses”. At AmGr10 [2], the “Real time calcium imaging response” value is given as “clearly showed calcium responses” and the “Real time calcium imaging response with IMP” value is recorded as “clearly showed enhanced response”.

Consider `N[C@@H](CCC(=O)O)C(=O)O` [L-glutamate, L-Glutamic acid], for which, in assay [1] (100 mM), the “Responses during 1 sec of stimulation” value stood at 27 spikes. For the same molecule, the “Responses during 1 sec of stimulation” value in [1] (200 mM) was 55 spikes. For the same molecule, the “Responses during 1 sec of stimulation” value in [1] (concentration of 50 mM) stood at 15 spikes. Also, in [1], the “Threshold concentration necessary for tip recording” value is on record as ~ 50 mM and the “Response of sensilla chaetica” value is given as “responded”. Further, at AmGr10 [3], the “Response of oocytes injected” value is listed as “responsive” and the “Threshold concentration on Xenopus oocytes expressed AmGr10” value is reported as ~ 10 mM. The “Response of HEK 293 cells expressing AmGr10 (in words)” value at AmGr10 [4] is reported as “highest responses”. Also, at AmGr10 [2], the “Real time calcium imaging response” value was “clearly showed calcium responses” and the “Real time calcium imaging response with IMP” value is “clearly showed enhanced response”.

`NC(=O)CC[C@H](N)C(=O)O` [L-glutamine, L-Glutamine]: on AmGr10 [3], the “Response of oocytes injected” value was “responsive”. Besides, the “Response of HEK 293 cells expressing AmGr10 (in words)” value at AmGr10 [4] is “significant responses”. Also, in the assay on hT1R1/hT1R3, the “Response of hT1R1/hT1R3” value is “slight but significant responses”. Besides, the “Umami taste in human sensory tests” value in the assay with human was “weak umami taste”.

Take `N[C@@H](Cc1c[nH]cn1)C(=O)O` [L-histidine, L-Histidine]: the “Response of hT1R1/hT1R3” value with hT1R1/hT1R3 is on record as “slight but significant responses”.

With `NCCCC[C@H](N)C(=O)O` [L-lysine, L-Lysine], the “Response of oocytes injected” value at AmGr10 [3] is on record as “responsive”. The “Response of HEK 293 cells expressing AmGr10 (in words)” value on AmGr10 [4] is listed as “significant responses”.

For `N[C@@H](CO)C(=O)O` [L-serine, L-Serine], the “Response of hT1R1/hT1R3” value in the assay on hT1R1/hT1R3 is listed as “slight but significant responses”.

On to `N[C@@H](CCC(=O)O)C(=O)[O-].[Na+]` [MSG, L-Glutamic acid monosodium salt], for which the “Response to MSG of AmGr10-transfected HEK 293 cells vs non-transfected” value on AmGr10 [4] (concentration steps, Fig. S5) was “significantly increased”. In the assay on hT1R1/hT1R3 (unlike non-transfected HEK 293 cells), the “Sensitivity of HEK 293 cells expressing hT1R1/hT1R3” value is listed as “significantly sensitive”.

As to `Cn1c(=O)c2c(ncn2C)n(C)c1=O` [caffeine], at AmGr10 [3], the “Response of oocytes injected” value is “not”.

Regarding `CNc1ccc2oc(C[C@@H]3OC4(CC[C@@H]3C)O[C@H](C(C)C(=O)c3ccc[nH]3)[C@H](C)C[C@H]4C)nc2c1C(=O)O` (stereo partly drawn) [calcium ionophore], in assay [5], the “Calcium influx in non-transfected HEK 293 cells” value was “activated”.

As for `O=C(CO)[C@@H](O)[C@H](O)[C@H](O)CO` [fructose], the “Response of AmGr1” value with AmGr1 was “not”. Besides, the “Response of AmGr3” value with AmGr3 is reported as “responds only”.

Take `OC[C@H]1OC(O)[C@H](O)[C@@H](O)[C@@H]1O` (stereo partly drawn) [glucose]: the “Response of AmGr1” value in the assay with AmGr1 is given as “responded”.

Take `OC[C@H]1O[C@@](CO)(O[C@H]2O[C@H](CO)[C@@H](O)[C@H](O)[C@H]2O)[C@@H](O)[C@@H]1O` [sucrose, Sucrose]: in [1], the “Response of sensilla chaetica” value is “sensitive”. Also, the “Response of AmGr1” value with AmGr1 was “responded”.

On to `OC[C@H]1O[C@H](O[C@H]2O[C@H](CO)[C@@H](O)[C@H](O)[C@H]2O)[C@H](O)[C@@H](O)[C@@H]1O` [trehalose], for which, in the assay on AmGr1, the “Response of AmGr1” value is “responded”.
